# Measurements as given in patent publication US20130337020A1, “Pharmaceutical Compositions” (Alpharma Pharmaceuticals LLC, priority 2006, published 2013).
# Tested on: not given
# Conditions: in comparison to a 15 mg dose of hydrocodone
row,Compound,"Equianalgesic Doses of Opioids, Calculated Dose [mg]"
1,"COc1ccc2c3c1OC1C(=O)CC[C@H]4[C@@H](C2)N(C)CC[C@]314 (stereo partly shown) [Hydrocodone, 4,5-epoxy-3-methoxy-17-methylmorphinan-6-one]",15.0
2,CCC(=O)C(CC(C)N(C)C)(c1ccccc1)c1ccccc1 (stereo not shown) [Methadone],9.0
3,CN1CC[C@]23CCCC[C@H]2[C@H]1Cc1ccc(O)cc13 [Levorphanol],1.8
4,COc1ccc2c3c1O[C@H]1[C@@H](O)C=C[C@H]4[C@@H](C2)N(C)CC[C@@]341 [Codeine],90.0
5,"COc1ccc2c3c1OC1C(=O)CC[C@@]4(O)[C@@H](C2)N(C)CC[C@]314 (stereo partly shown) [Oxycodone, 4,5-epoxy-14-hydroxy-3-methoxy-17-methylmorphinan-6-one]",13.5
6,Meperidine,135.0

# Tested on: opioid receptors
# Conditions: cited from earlier work
row,Compound,antagonist potency relative to naltrexone [%]
1,Oc1ccc2c3c1O[C@H]1[C@H](O)CC[C@@]4(O)[C@@H](C2)N(CC2CC2)CC[C@]314 [6-β-naltrexol],2 to 4
